Laboratory results: patent US9539309B2, “Controlled release of growth factors and signaling molecules for promoting angiogenesis” (President and Fellows of Harvard College, priority 2008, dated 2017)

What was measured:
[1] = system: Endothelial cells isolated from diabetics; experiment: in vitro sprouting model with endothelial cells isolated from diabetics; assay type: cell-based
Description: In addition, there is an optimal VEGF concentration to induce most sprouts.
Endothelial cells isolated from diabetics produce more sprouts in the presence of a combination of both gamma-secretase inhibitors with VEGF. (FIG. 2, *P<0.05) than with either of them alone, which implies the need of a combination of both growth factor and DAPT.

[2] = system: cells in small intestines; experiment: in vivo effect of DAPT on the cells in small intestines (H&E, alcian blue, Ki67, HES-1 staining); design: species or system mice
Description: FIG. 6 is a series of photomicrographs showing the effect of DAPT on gastrointestinal tissue. In vivo model was used to test the effect of DAPT delivered from alginate gel system and from intraperitoneal injection on the cells in small intestines. gel: alginate gel. ip: intraperitoneal injection. H&E, alcian blue, Ki67 and HES-1 are the four different staining methods to characterize the crypt cells in small intestines. Ki-67 was used to stain the proliferative cells. Loss of Notch signaling can alter the proliferation rate of crypt cells. HES-1 staining was to examine the expression of a known Notch target gene in crypts. Alcian blue staining was to examine the deposition of glycosaminoglycan molecules. Loss of Notch signaling can result in more deposition of glycosaminoglycan molecules. Expression of HES-1 (hairy and enhancer of split 1), a member of basic helix-loop-helix family of transcription factors and a known Notch target gene in crypts was examined. Loss of Notch signaling can alter the proliferation rate of crypt cells, as shown by Ki-67 staining the proliferative cells. In addition, Notch inhibition has been reported to alter the balance between proliferative crypt cells and goblet cells, resulting in more deposition of glycosaminoglycan molecules, as characterized by alcian blue staining.

[3] = DAPT delivered via intraperitoneal injection

Row | region of effects ([2]; DAPT delivered from the gel system) | glycosaminoglycans, alcian blue staining [2, 3] | intestinal structure, H&E staining [2, 3] | Compound | concentration of VEGF that gives the most sprouts if used alone ([1]; VEGF alone, FIG. 3) | response to VEGF, capability of forming sprouts ([1]; endothelial cells from diabetics compared to age-matched non-diabetics, FIG. 1, P<0.05) | cell differentiation at distant sites (small intestines) ([2]; DAPT delivered from alginate gel system, compared with intraperitoneal injection, FIG. 6) | Notch target gene expression, HES-1 staining [2, 3] | proliferating cells, Ki67 staining [2, 3] | effects at distant organs (e.g., small intestines) ([2]; DAPT delivered via intraperitoneal injection, goes into the systemic circulation)
1 |  |  |  | VEGF | 50 ng/mL | reduced response |  |  |  | 
2 | only has effects in the local region | presence of extra glycosaminoglycans | disrupts normal intestinal structure | C[C@H](NC(=O)Cc1cc(F)cc(F)c1)C(=O)N[C@H](C(=O)OC(C)(C)C)c1ccccc1 [DAPT, N—[N-(3,5-Difluorophenacetyl-L-alanyl)]-S-phenylglycine t-butyl ester] |  |  | does not alter cell differentiation at distant sites as much | downregulation of Notch target gene expression | loss of proliferating cells | led to adverse effects at distant organs
